In patent publication US4650874A, “N-(aralkoxybenzyl)-4(benzhydryl) piperidines” (G. D. Searle & Co., priority 1984, dated 1987):
Where a name gives a salt, the structure may show the parent alone.

Columns and labels:
[1] = test system: spontaneously hypertensive rats; test: Anti-hypertensive activity in the unanesthetized spontaneously hypertensive rat (SHR) assay; format: in vivo; conditions: for minimal effective dose: Rattus norvegicus, read-out: Threshold Dose mg/kg intravenous; for minimal effective dose / Threshold Dose mg/kg intravenous: intravenous; for Oral Activity (Blood Pressure Lowering): intragastrically 50 mg/kg
Description: Male, unanesthetized spontaneously hypertensive rats, 11 to 16 weeks old were used in this test procedure. The compounds to be tested were administered intragastrically at a dose of 50 mg/kg or intraarterially/intravenously at a dose of 10 mg/kg.
Initial mean arterial blood pressure was measured directly via a previously implanted arterial catheter immediately before administration of the test compound. Blood pressure readings were made at 1, 2, 3, and 4 hours following administration of the test compound. […] Statistical comparisons were made using the paired Student's T test with two sided probability calculations.

[2] = target: T1, vascular smooth muscle (isolated thoracic aorta segments) (Rattus norvegicus, UniProt P22002); test: Calcium antagonism in vascular smooth muscle (isolated thoracic aorta segments from male spontaneously hypertensive rats); format: cell-based; conditions: for activity as vascular calcium antagonist (in words): isolated SHR aorta; for Kb: read-out: pA2 (Ca++ Antagonism) (converted)
T1 construct: The excised aorta segment was mounted in a tissue bath containing modified Krebs solution; from tissue; host or cells: thoracic aorta segments of male spontaneously hypertensive rats
T1 sequence (P22002 whole entry): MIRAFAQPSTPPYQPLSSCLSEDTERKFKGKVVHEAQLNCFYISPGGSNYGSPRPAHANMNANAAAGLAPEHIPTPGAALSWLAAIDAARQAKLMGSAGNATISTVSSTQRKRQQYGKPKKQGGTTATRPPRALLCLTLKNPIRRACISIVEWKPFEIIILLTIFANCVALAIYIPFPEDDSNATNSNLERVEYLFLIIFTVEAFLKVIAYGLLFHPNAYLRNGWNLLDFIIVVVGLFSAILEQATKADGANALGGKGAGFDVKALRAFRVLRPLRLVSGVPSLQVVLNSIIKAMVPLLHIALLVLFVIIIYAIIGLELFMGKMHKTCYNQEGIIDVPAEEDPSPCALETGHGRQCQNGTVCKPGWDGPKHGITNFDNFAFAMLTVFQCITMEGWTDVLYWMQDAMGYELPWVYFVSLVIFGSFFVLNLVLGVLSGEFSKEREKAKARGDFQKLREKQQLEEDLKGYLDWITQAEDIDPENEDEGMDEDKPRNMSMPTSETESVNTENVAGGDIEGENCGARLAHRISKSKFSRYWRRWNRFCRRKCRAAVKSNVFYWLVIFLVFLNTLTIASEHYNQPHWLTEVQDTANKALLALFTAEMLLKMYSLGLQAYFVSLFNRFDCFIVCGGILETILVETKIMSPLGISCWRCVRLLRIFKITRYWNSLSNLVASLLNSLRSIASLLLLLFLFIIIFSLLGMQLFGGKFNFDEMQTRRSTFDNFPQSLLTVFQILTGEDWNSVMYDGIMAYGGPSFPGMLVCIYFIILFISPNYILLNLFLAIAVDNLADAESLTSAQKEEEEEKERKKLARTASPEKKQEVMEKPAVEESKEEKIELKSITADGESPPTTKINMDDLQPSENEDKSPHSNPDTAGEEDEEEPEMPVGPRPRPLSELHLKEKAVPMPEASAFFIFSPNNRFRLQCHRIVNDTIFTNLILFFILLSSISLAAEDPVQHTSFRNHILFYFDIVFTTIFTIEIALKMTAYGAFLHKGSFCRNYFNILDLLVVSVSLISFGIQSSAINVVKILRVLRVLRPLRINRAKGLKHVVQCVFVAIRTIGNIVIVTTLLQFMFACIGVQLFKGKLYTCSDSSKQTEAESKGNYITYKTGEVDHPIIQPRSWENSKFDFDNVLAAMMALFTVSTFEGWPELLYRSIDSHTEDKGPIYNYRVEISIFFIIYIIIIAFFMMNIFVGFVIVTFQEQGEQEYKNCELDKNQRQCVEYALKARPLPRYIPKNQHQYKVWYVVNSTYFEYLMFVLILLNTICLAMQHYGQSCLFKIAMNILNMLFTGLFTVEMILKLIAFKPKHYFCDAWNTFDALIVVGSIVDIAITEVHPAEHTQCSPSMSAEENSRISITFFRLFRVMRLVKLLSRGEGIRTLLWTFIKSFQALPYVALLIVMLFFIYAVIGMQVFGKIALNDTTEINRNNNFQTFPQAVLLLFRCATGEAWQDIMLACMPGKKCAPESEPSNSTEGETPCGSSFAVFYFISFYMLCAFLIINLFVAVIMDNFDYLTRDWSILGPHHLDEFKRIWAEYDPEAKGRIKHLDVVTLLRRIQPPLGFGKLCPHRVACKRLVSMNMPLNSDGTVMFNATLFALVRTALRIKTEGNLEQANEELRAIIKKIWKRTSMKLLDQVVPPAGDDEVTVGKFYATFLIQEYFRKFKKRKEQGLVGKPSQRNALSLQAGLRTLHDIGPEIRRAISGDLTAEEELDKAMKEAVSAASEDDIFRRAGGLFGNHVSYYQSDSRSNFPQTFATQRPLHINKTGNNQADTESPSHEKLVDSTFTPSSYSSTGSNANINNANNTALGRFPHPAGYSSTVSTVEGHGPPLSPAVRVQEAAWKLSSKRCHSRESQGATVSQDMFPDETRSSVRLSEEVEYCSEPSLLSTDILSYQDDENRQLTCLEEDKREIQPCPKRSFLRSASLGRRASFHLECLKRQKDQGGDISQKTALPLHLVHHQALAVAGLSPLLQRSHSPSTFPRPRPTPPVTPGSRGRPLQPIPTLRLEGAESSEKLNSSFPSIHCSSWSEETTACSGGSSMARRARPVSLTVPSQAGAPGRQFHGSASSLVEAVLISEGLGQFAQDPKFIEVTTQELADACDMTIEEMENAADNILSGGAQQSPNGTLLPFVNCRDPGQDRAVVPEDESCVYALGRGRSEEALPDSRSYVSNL
Description: Isolated thoracic aorta segments from the male spontaneously hypertensive rat were utilized in this test procedure.
The excised aorta segment was mounted in a tissue bath containing modified Krebs solution. After depolarization of the tissue with potassium (100 mM), calcium, in cumulative concentrations of 1×10^-3 M, 3.2×10^-3 M, and 1×10^-2 M was injected into the bath to produce vascular smooth muscle contraction. The developed tension (in grams) is measured and control dose-response values obtained. After one hour of incubation with a test compound at 1×10^-6 M concentration, the same doses of calcium ions were repeated. The log dose-response curves of the control and after treatment were analyzed by linear regression. The pA2 value was calculated as a measure of calcium antagonism of the test compound. See Van Rossum, J. M., Arch. Int. Pharmacodyn, 143, 299-330, 1963.
Calcium ions play an essential role in induction and maintenance of vascular smooth muscle contractility. In potassium depolarized vascular smooth muscle, calcium antagonists may block the entry of calcium ions into the cell or act by other mechanisms to inhibit the contractions induced by calcium ions. The inhibition of calcium ion - induced contraction of vascular smooth muscle is used to test compounds for vascular calcium antagonism. Cardiovascular diseases such as arrythmias, angina-pectoris, hypertension, and peripheral vascular disease may be casually related to abnormalities in cellular handling of calcium ions.

[3] = 1×10^-6 M, one hour incubation, K+ (100 mM) depolarized SHR aorta

Kb [2, 3] | SMILES | SHR mm Hg @ 10 mg/kg intravenous (blood pressure lowering) ([1]; SHR) | minimal effective dose ([1]; SHR) | also measured
 | C[C@](N)(Cc1ccc(O)c(O)c1)C(=O)O [Aldomet, reference compound] |  |  | activity in the hypertensive rat assay (in words) ([1]; SHR): active
 | NNc1nncc2ccccc12 [Apresoline, reference compound] |  |  | activity in the hypertensive rat assay (in words) ([1]; rat, in vivo): active
 | C[C@H](CS)C(=O)N1CCC[C@H]1C(=O)O [Captopril, reference compound] |  |  | activity in the hypertensive rat assay (in words) ([1]; SHR): active
 | Clc1cccc(Cl)c1N=C1NCCN1 [Clonidine, reference compound] |  |  | activity in the hypertensive rat assay (in words) ([1]; rat, in vivo): active
 | COc1ccc([C@@H]2Sc3ccccc3N(CCN(C)C)C(=O)[C@@H]2OC(C)=O)cc1 [Diltiazem, reference compound] |  |  | activity as vascular calcium antagonist (in words) [2]: active
 | CCOC(=O)c1cc(OCc2ccccc2)ccc1CN1CCC(C(c2ccccc2)c2ccccc2)CC1 [Example 2, ethyl 2-[[4-(diphenylmethyl)-1-piperidinyl]methyl]-5-(phenylmethoxy)benzoate] | inactive |  | pA2 (Ca++ Antagonism) [2, 3]: inactive
25.7 nM | COc1ccc(CN2CCC(C(c3ccccc3)c3ccccc3)CC2)cc1OCc1ccccc1 [Example 3, 4-(diphenylmethyl)-1-[[[4-methoxy-3-(phenylmethoxy)phenyl]methyl]piperidine, ethanedioate] | 79 mm Hg | 0.3 mg/kg | 
186 nM | CC(C)(C)NC(=O)c1cc(OCc2ccccc2)ccc1CN1CCC(C(c2ccccc2)c2ccccc2)CC1 [Example 4, 2-[[4-(diphenylmethyl)-1-piperidinyl]methyl]-5-(phenylmethoxy)-N-(1,1-dimethylethyl) benzamide] | 29 mm Hg | 0.3 mg/kg | 
 | Oc1ccc(CN2CCC(C(c3ccccc3)c3ccccc3)CC2)cc1 [Example 5, 4-[[4-(diphenylmethyl)-1-piperidinyl]methyl]phenol] |  |  | Oral Activity (Blood Pressure Lowering) ([1]; SHR): inactive
10.7 nM | c1ccc(COc2ccc(CN3CCC(C(c4ccccc4)c4ccccc4)CC3)cc2)cc1 [Example 6, 4-(diphenylmethyl)-1-[[4-(phenylmethoxy)phenyl]methyl] piperidine, hydrochloride] | 88 mm Hg | 0.3 mg/kg | 
 | Cc1ccc(COc2ccc(CN3CCC(C(c4ccccc4)c4ccccc4)CC3)cc2)cc1 [Example 7, 4-(diphenylmethyl)-1-[[4-[(4-methylphenyl)methoxy]phenyl]methyl] piperidine, 2-butendioate] | 56 mm Hg | 1 mg/kg | 
18.2 nM | COc1ccc(COc2ccc(CN3CCC(C(c4ccc(F)cc4)c4ccc(F)cc4)CC3)cc2)cc1 [Example 8] | 50 mm Hg | 1 mg/kg | 
41.7 nM | COc1ccc(COc2ccc(CN3CCC(C(c4ccccc4)c4ccccc4)CC3)cc2)cc1 [Example 9, 4-(diphenylmethyl)-1-[[4-[(4-methoxyphenyl)methoxy]phenyl]methyl]piperidine] |  |  | 
26.9 nM | Fc1ccc(C(c2ccc(F)cc2)C2CCN(Cc3ccc(OCc4ccccc4)cc3)CC2)cc1 [Example 10, [bis(4-fluorophenyl)methyl]-1-[[4-(phenylmethoxy)phenyl]methyl]piperidine] | 67 mm Hg | 0.3 mg/kg | 
8.71 nM | Fc1ccc(C(c2ccc(F)cc2)C2CCN(Cc3ccc(OCc4ccc(Cl)cc4)cc3)CC2)cc1 [Example 11, 4-[bis(4-fluorophenyl)methyl]-1-[[4-[(4-chlorophenyl)methoxy]phenyl]methyl]piperidine, hydrobromide] | 107 mm Hg | 0.3 mg/kg | 
30.2 nM | Fc1ccc(C(c2ccc(F)cc2)C2CCN(Cc3ccc(OCc4ccc(Cl)cc4Cl)cc3)CC2)cc1 [Example 12, 4-[bis(4-fluorophenyl)methyl]-1-[[4-[(2,4-dichlorophenyl)methoxy]phenyl]methyl] piperidine, hydrochloride] | 79 mm Hg | 0.1 mg/kg | 
12.9 nM | Fc1cccc(C(c2cccc(F)c2)C2CCN(Cc3ccc(OCc4ccccc4)cc3)CC2)c1 [Example 13] | inactive |  | Threshold Dose mg/kg intravenous ([1]; SHR): inactive
38.9 nM | Clc1ccc(COc2ccc(CN3CCC(C(c4ccccc4)c4ccccc4)CC3)cc2)cc1 [Example 14, 1-[[4-[(4-chlorophenyl)methoxy]phenyl]methyl]-4-(diphenylmethyl)piperidine] |  |  | Oral Activity (Blood Pressure Lowering) ([1]; SHR): active
 | Clc1ccc(COc2ccc(CN3CCC(C(c4ccccc4)c4ccccc4)CC3)cc2)cc1 [Example 15, 1-[[4-[(4-chlorophenyl)methoxy]phenyl]methyl]-4-(diphenylmethyl)piperidine, 2-butenedioate] | 89 mm Hg | 1 mg/kg | 
 | Clc1ccc(COc2ccc(CN3CCC(C(c4ccccc4)c4ccccc4)CC3)cc2)cc1Cl [Example 16, 1-[[4-[(3,4-dichlorophenyl)methoxy]phenyl]methyl]-4-(diphenylmethyl)piperidine, 2-butenedioate] | 81 mm Hg | 0.3 mg/kg | 
40.7 nM | Clc1ccc(COc2ccc(CN3CCC(C(c4ccccc4)c4ccccc4)CC3)cc2)c(Cl)c1 [Example 17, 1-[[4-[(2,4-dichlorophenyl)methoxy]phenyl]methyl]-4-(diphenylmethyl)piperidine] | inactive |  | Threshold Dose mg/kg intravenous ([1]; SHR): inactive
70.8 nM | Fc1ccccc1COc1ccc(CN2CCC(C(c3ccccc3)c3ccccc3)CC2)cc1 [Example 18, 4-(diphenylmethyl)-1-[[4-[(2-fluorophenyl)methoxy]phenyl]methyl]piperidine] | 65 mm Hg | 0.3 mg/kg | Oral Activity (Blood Pressure Lowering) ([1]; SHR): active
457 nM | COc1ccc(CN2CCC(C(c3ccccc3)c3ccccc3)CC2)cc1OCc1ccc(Cl)cc1 [Example 19] | 75 mm Hg | 1 mg/kg | 
44.7 nM | c1ccc(C(c2ccccc2)C2CCN(Cc3ccc(OCC4CCCCC4)cc3)CC2)cc1 [Example 20] | inactive |  | 
 | COc1cc(CN2CCC(C(c3ccccc3)c3ccccc3)CC2)ccc1OCc1ccccc1 [Example 21] | 18 mm Hg | 0.1 mg/kg | Oral Activity (Blood Pressure Lowering) ([1]; SHR): active
 | COC(=O)C1=C(C)NC(C)=C(C(=O)OC)C1c1ccccc1[N+](=O)[O-] [Nifedipine, reference compound] |  |  | activity as vascular calcium antagonist (in words) [2]: active
 | COc1ccc(CCN(C)CCCC(C#N)(c2ccc(OC)c(OC)c2)C(C)C)cc1OC (stereo not shown) [Verapamil, reference compound] |  |  | activity as vascular calcium antagonist (in words) [2]: active
